Experimental data reported in patent US11807644B2 (PMV Pharmaceuticals, Inc., priority 2020, dated 2023).

These compounds were tested against T1, recombinant His-tag Y220C p53 DBD protein (Homo sapiens, UniProt P04637, Y220C) (assay: In vitro DNA binding activity assay (TR-FRET): binding of His-tag Y220C p53 DBD to biotin-labeled consensus DNA). Settings: SC150 = concentration to increase DNA binding by […], His-tag Y220C p53 DBD, biotin-labeled consensus DNA.
T1 construct: recombinant His-tag Y220C p53 DBD protein (amino acids #˜94-312)
Type: biochemical

Structure (SMILES)	Y220C SC150 (μM)
CN1CC[C@@H](Nc2cccc3c2cc(-c2noc(CNC(=O)c4csc(C(C)(C)O)c4)n2)n3CC(F)(F)F)[C@@H](F)C1 [Compound 425B, N-{[3-(4-{[(3S,4R)-3-fluoro-1-methylpiperidin-4-yl]amino}-1-(2,2,2-trifluoroethyl)-1H-indol-2-yl)-1,2,4-oxadiazol-5-yl]methyl}-5-(2-hydroxypropan-2-yl)thiophene-3-carboxamide]	* (* = 0 μM ≤ SC150 < 0.1 μM)
COCC1(n2ccc(C(=O)NCc3nc(-c4cc5c(N[C@@H]6CCN(C)C[C@@H]6F)cccc5n4CC(F)(F)F)no3)c2)CC1 [Compound 426B, N-{[3-(4-{[(3S,4R)-3-fluoro-1-methylpiperidin-4-yl]amino}-1-(2,2,2-trifluoroethyl)-1H-indol-2-yl)-1,2,4-oxadiazol-5-yl]methyl}-1-[1-(methoxymethyl)cyclopropyl]-1H-pyrrole-3-carboxamide]	* (* = 0 μM ≤ SC150 < 0.1 μM)
CCC(C)(C)n1ccc(C(=O)NCc2nc(-c3cc4c(N[C@@H]5CCN(C)C[C@@H]5F)cccc4n3CC(F)(F)F)no2)c1 [Compound 427B, N-{[3-(4-{[(3S,4R)-3-fluoro-1-methylpiperidin-4-yl]amino}-1-(2,2,2-trifluoroethyl)-1H-indol-2-yl)-1,2,4-oxadiazol-5-yl]methyl}-1-(2-methylbutan-2-yl)-1H-pyrrole-3-carboxamide]	* (* = 0 μM ≤ SC150 < 0.1 μM)
CN1CC[C@@H](Nc2cccc3c2cc(-c2noc(CNC(=O)c4ccn(C5(C)CC5)c4)n2)n3CC(F)(F)F)[C@@H](F)C1 [Compound 428B, N-{[3-(4-{[(3S,4R)-3-fluoro-1-methylpiperidin-4-yl]amino}-1-(2,2,2-trifluoroethyl)-1H-indol-2-yl)-1,2,4-oxadiazol-5-yl]methyl}-1-(1-methylcyclopropyl)-1H-pyrrole-3-carboxamide]	* (* = 0 μM ≤ SC150 < 0.1 μM)
CN1CC[C@@H](Nc2cccc3c2cc(-c2noc(CNC(=O)c4csc(N)c4)n2)n3CC(F)(F)F)[C@@H](F)C1 [Compound 429B, 5-amino-N-{[3-(4-{[(3S,4R)-3-fluoro-1-methylpiperidin-4-yl]amino}-1-(2,2,2-trifluoroethyl)-1H-indol-2-yl)-1,2,4-oxadiazol-5-yl]methyl}thiophene-3-carboxamide]	* (* = 0 μM ≤ SC150 < 0.1 μM)
CC(C)c1nc(C(=O)NCc2nc(-c3cc4c(N[C@@H]5CCN(C)C[C@@H]5F)cccc4n3CC(F)(F)F)no2)co1 [Compound 430B, N-{[3-(4-{[(3S,4R)-3-fluoro-1-methylpiperidin-4-yl]amino}-1-(2,2,2-trifluoroethyl)-1H-indol-2-yl)-1,2,4-oxadiazol-5-yl]methyl}-2-(propan-2-yl)-1,3-oxazole-4-carboxamide]	* (* = 0 μM ≤ SC150 < 0.1 μM)
CC(C)c1ncc(C(=O)NCc2nc(-c3cc4c(N[C@@H]5CCN(C)C[C@@H]5F)cccc4n3CC(F)(F)F)no2)s1 [Compound 431B, N-{[3-(4-{[(3S,4R)-3-fluoro-1-methylpiperidin-4-yl]amino}-1-(2,2,2-trifluoroethyl)-1H-indol-2-yl)-1,2,4-oxadiazol-5-yl]methyl}-2-(propan-2-yl)-1,3-thiazole-5-carboxamide]	* (* = 0 μM ≤ SC150 < 0.1 μM)
CN1CC[C@@H](Nc2cccc3c2cc(-c2noc(CNC(=O)c4cnc(N(C)C)s4)n2)n3CC(F)(F)F)[C@@H](F)C1 [Compound 432B, 2-(dimethylamino)-N-{[3-(4-{[(3S,4R)-3-fluoro-1-methylpiperidin-4-yl]amino}-1-(2,2,2-trifluoroethyl)-1H-indol-2-yl)-1,2,4-oxadiazol-5-yl]methyl)-1,3-thiazole-5-carboxamide]	* (* = 0 μM ≤ SC150 < 0.1 μM)
CN1CC[C@@H](Nc2cccc3c2cc(-c2noc(CNC(=O)c4cn(C5(C)CCOCC5)cn4)n2)n3CC(F)(F)F)[C@@H](F)C1 [Compound 433B, N-{[3-(4-{[(3S,4R)-3-fluoro-1-methylpiperidin-4-yl]amino}-1-(2,2,2-trifluoroethyl)-1H-indol-2-yl)-1,2,4-oxadiazol-5-yl]methyl}-1-(4-methyloxan-4-yl)-1H-imidazole-4-carboxamide]	* (* = 0 μM ≤ SC150 < 0.1 μM)
CN1CC[C@@H](Nc2cccc3c2cc(-c2noc(CNC(=O)c4csc(C(C)(C)C)n4)n2)n3CC(F)(F)F)[C@@H](F)C1 [Compound 438B, 2-tert-butyl-N-{[3-(4-{[(3S,4R)-3-fluoro-1-methylpiperidin-4-yl]amino}-1-(2,2,2-trifluoroethyl)-1H-indol-2-yl)-1,2,4-oxadiazol-5-yl]methyl}-1,3-thiazole-4-carboxamide]	* (* = 0 μM ≤ SC150 < 0.1 μM)
CN1CC[C@@H](Nc2cccc3c2cc(-c2noc(CNC(=O)c4coc(C(C)(C)C)n4)n2)n3CC(F)(F)F)[C@@H](F)C1 [Compound 440B, 2-tert-butyl-N-{[3-(4-{[(3S,4R)-3-fluoro-1-methylpiperidin-4-yl]amino}-1-(2,2,2-trifluoroethyl)-1H-indol-2-yl)-1,2,4-oxadiazol-5-yl]methyl}-1,3-oxazole-4-carboxamide]	* (* = 0 μM ≤ SC150 < 0.1 μM)
CN1CC[C@@H](Nc2cccc3c2cc(-c2noc(CNC(=O)c4ccc(C(C)(C)C#N)s4)n2)n3CC(F)(F)F)[C@@H](F)C1 [Compound 442B, 5-(1-cyano-1-methylethyl)-N-{[3-(4-{[(3S,4R)-3-fluoro-1-methylpiperidin-4-yl]amino}-1-(2,2,2-trifluoroethyl)-1H-indol-2-yl)-1,2,4-oxadiazol-5-yl]methyl}thiophene-2-carboxamide]	* (* = 0 μM ≤ SC150 < 0.1 μM)

More lines, now with the values ahead:

Y220C SC150 (μM)	Structure (SMILES)
* (* = 0 μM ≤ SC150 < 0.1 μM)	CC(C)c1nc(C(=O)NCc2nc(-c3cc4c(N[C@@H]5CCN(C)C[C@@H]5F)cccc4n3CC(F)(F)F)no2)cs1 [Compound 434B, N-{[3-(4-{[(3S,4R)-3-fluoro-1-methylpiperidin-4-yl]amino}-1-(2,2,2-trifluoroethyl)-1H-indol-2-yl)-1,2,4-oxadiazol-5-yl]methyl}-2-(propan-2-yl)-1,3-thiazole-4-carboxamide]
* (* = 0 μM ≤ SC150 < 0.1 μM)	CN1CC[C@@H](Nc2cccc3c2cc(-c2noc(CNC(=O)c4csc(N(C)C)n4)n2)n3CC(F)(F)F)[C@@H](F)C1 [Compound 435B, 2-(dimethylamino)-N-{[3-(4-{[(3S,4R)-3-fluoro-1-methylpiperidin-4-yl]amino}-1-(2,2,2-trifluoroethyl)-1H-indol-2-yl)-1,2,4-oxadiazol-5-yl]methyl}-1,3-thiazole-4-carboxamide]
* (* = 0 μM ≤ SC150 < 0.1 μM)	CN1CC[C@@H](Nc2cccc3c2cc(-c2noc(CNC(=O)c4csc(N5CCOCC5)c4)n2)n3CC(F)(F)F)[C@@H](F)C1 [Compound 436B, N-{[3-(4-{[(3S,4R)-3-fluoro-1-methylpiperidin-4-yl]amino}-1-(2,2,2-trifluoroethyl)-1H-indol-2-yl)-1,2,4-oxadiazol-5-yl]methyl}-5-(morpholin-4-yl)thiophene-3-carboxamide]
* (* = 0 μM ≤ SC150 < 0.1 μM)	CN1CC[C@@H](Nc2cccc3c2cc(-c2noc(CNC(=O)c4cnc(C(C)(C)C)s4)n2)n3CC(F)(F)F)[C@@H](F)C1 [Compound 437B, 2-tert-butyl-N-{[3-(4-{[(3S,4R)-3-fluoro-1-methylpiperidin-4-yl]amino}-1-(2,2,2-trifluoroethyl)-1H-indol-2-yl)-1,2,4-oxadiazol-5-yl]methyl}-1,3-thiazole-5-carboxamide]
* (* = 0 μM ≤ SC150 < 0.1 μM)	COC(C)(C)c1ccc(C(=O)NCc2nc(-c3cc4c(N[C@@H]5CCN(C)C[C@@H]5F)cccc4n3CC(F)(F)F)no2)s1 [Compound 439B, N-{[3-(4-{[(3S,4R)-3-fluoro-1-methylpiperidin-4-yl]amino}-1-(2,2,2-trifluoroethyl)-1H-indol-2-yl)-1,2,4-oxadiazol-5-yl]methyl}-5-(2-methoxypropan-2-yl)thiophene-2-carboxamide]
* (* = 0 μM ≤ SC150 < 0.1 μM)	CN1CC[C@@H](Nc2cccc3c2cc(-c2noc(CNC(=O)c4ccn(C(C)(C)CO)c4)n2)n3CC(F)(F)F)[C@@H](F)C1 [Compound 441B]
* (* = 0 μM ≤ SC150 < 0.1 μM)	CN1CC[C@@H](Nc2cccc3c2cc(-c2noc(CNC(=O)c4cnc(C(C)(C)C)o4)n2)n3CC(F)(F)F)[C@@H](F)C1 [Compound 443B, 2-tert-butyl-N-{[3-(4-{[(3S,4R)-3-fluoro-1-methylpiperidin-4-yl]amino}-1-(2,2,2-trifluoroethyl)-1H-indol-2-yl)-1,2,4-oxadiazol-5-yl]methyl}-1,3-oxazole-5-carboxamide]
* (* = 0 μM ≤ SC150 < 0.1 μM)	CC(C)c1ccc(C(=O)NCc2nc(-c3cc4c(N[C@@H]5CCN(C)C[C@@H]5F)cccc4n3CC(F)(F)F)no2)s1 [Compound 444B, N-{[3-(4-{[(3S,4R)-3-fluoro-1-methylpiperidin-4-yl]amino}-1-(2,2,2-trifluoroethyl)-1H-indol-2-yl)-1,2,4-oxadiazol-5-yl]methyl}-5-(propan-2-yl)thiophene-2-carboxamide]
* (* = 0 μM ≤ SC150 < 0.1 μM)	CN1CC[C@@H](Nc2cccc3c2cc(-c2noc(CNc4nccc5ccsc45)n2)n3CC(F)(F)F)[C@@H](F)C1 [Compound 445B, N-[(3S,4R)-3-fluoro-1-methylpiperidin-4-yl]-2-{5-[({thieno[2,3-c]pyridin-7-yl}amino)methyl]-1,2,4-oxadiazol-3-yl}-1-(2,2,2-trifluoroethyl)-1H-indol-4-amine]
* (* = 0 μM ≤ SC150 < 0.1 μM)	CN1CC[C@@H](Nc2cccc3c2cc(-c2noc(CNC(=O)c4ccc(C5(C)CC5)s4)n2)n3CC(F)(F)F)[C@@H](F)C1 [Compound 446B]
* (* = 0 μM ≤ SC150 < 0.1 μM)	COC(C)(C)c1cc(C(=O)NCc2nc(-c3cc4c(N[C@@H]5CCN(C)C[C@@H]5F)cccc4n3CC(F)(F)F)no2)cs1 [Compound 447B, N-{[3-(4-{[(3S,4R)-3-fluoro-1-methylpiperidin-4-yl]amino}-1-(2,2,2-trifluoroethyl)-1H-indol-2-yl)-1,2,4-oxadiazol-5-yl]methyl}-5-(2-methoxypropan-2-yl)thiophene-3-carboxamide]
